Assay results taken from patent US8247170B2, “Detection of penicillin tolerance in Group B Streptococcus: single nucleotide polymorphisms in penicillin binding protein 4” (priority 2008, dated 2012).

Tested on: GBS clinical isolates and laboratory strains
Experiment: Macrobroth penicillin tolerance assay
Type: cell-based, Group B Streptococcus
Conditions: then 24 h drug-free; for 30xMIC, regrowth O.D.600: Penicillin G 30×MIC90 48 h; for 100xMIC, regrowth O.D.600: Penicillin G 100×MIC90 48 h; for 300xMIC, regrowth O.D.600: Penicillin G 300×MIC90 48 h; for 10xMIC, regrowth O.D.600: Penicillin G 10×MIC90 48 h
Method: Using this modified penicillin tolerance assay, tolerant strains from the GBS clinical isolates can be more efficiently identified. In this macrobroth culture format, 25 ml THB broth GBS cultures (containing clinical isolates) were grown to an early exponential growth phase (˜0.2 OD600). Cell cultures (6 ml) were collected and divided into 4 culture tubes. […] Cell cultures were shaken at 150 rpm in order to maintain cells in suspension for proper growth. Subcultures (1/20 dilution) of cells were put into fresh THB containing […] Penase (i.e., 100 μl of Penase 10,000 U stock into 4 ml THB culture). Subcultures were allowed to grow for 24 hours at 37° C. Cell growth was monitored by OD (see Example 2).
(I) Bacterial Strains and Culture Conditions. GBS strains A909 (serotype IA), 515 (serotype IA), NEM316 (serotype III), COHI (serotype III), 2603V/R (serotype V) and O90R (non-typable) were used in this study. E. coli Top10 cells were used for the recombination experiments. GBS was cultured in Todd Hewitt broth (THB) or Tryptic Soy 5% sheep blood (TS) media and E. coli in Luria-broth (LB) medium or agar. Antibiotics were used at the following concentrations: for GBS—penicillin G (MIC90 0.06 μg ml^−1), ampicillin (MIC90 0.12 μg ml^−1), vancomycin (MIC90 2 μg ml^−1), cefazolin (MIC90 1 μg ml^−1) and chloramphenicol (5 μg ml^−1); for E. coli—ampicillin (50 μg ml^−1) and chloramphenicol (5 μg ml^−1). Both GBS and E. coli cultures were grown at 37° C. (II) Tolerance Using the MBC:MIC Ratio Method. Three GBS laboratory strains (i.e., A909, NEM316, and O90R) were cultured overnight for 18 h at 37° C. in THB. Subcultures in THB were subsequently grown to exponential phase (OD600˜0.3; i.e. 5×10^5 cfu/ml) at 37° C. Cell cultures were then exposed to different concentrations of antibiotics (Penicillin G, Ampicillin, Cefozolin or Vancomycin). […] Cell cultures were dispersed every 18 h before OD600 was measured to determine the lowest concentration of antibiotic with 90% growth inhibition (MIC90). Antibiotic treated cells (8 μl) from each well were re-suspended into PBS (100 μl) and plated (54 μl) on TS agar plates and allowed to grow for an additional 24 h at 37° C. Cell count was performed to determine the lowest concentration of antibiotic with 90% killing of original inoculums (MBC90). (III) Penicillin Killing and Regrowth Tolerance Assay by Microbroth Dilution. Three GBS laboratory strains (i.e., A909, NEM316, and O90R) were cultured overnight for 18 h at 37° C. in THB. Subcultures in THB were subsequently grown to exponential phase (OD600˜0.3) at 37° C. Cell cultures were then exposed to different concentrations of Penicillin G (Sigma, St. Louis, Mo.). […] Cell cultures were dispersed. A 1:20 dilution of cells was re-plated into new wells containing fresh THB with 500 U Penase (to degrade residual penicillin). Cell cultures were allowed to re-grow for an additional 24 h at 37° C. before the OD600 was measured. (IV) Measuring Cell Viability by Determining ATP Concentration. GBS strains were cultured for 18 h at 37° C. in THB. These cells were inoculated into fresh THB and subsequently allowed to grow to exponential phase (OD600 0.25-0.3) at 37° C. One ml of each culture was centrifuged at 5,000×g for 4 min. The cell pellet was re-suspended in ATP-free water. Cellular ATP was extracted using trichloroacetic acid (TCA) (5%) for 2 min and subsequently neutralized with Tris-EDTA-0.1M NaOAc, pH 7.75 to 10×TCA volume. The initial (in.) cellular ATP concentration ([ATP]) was measured using the ENLITEN (Promega) luciferase based reaction kit. THB cultures were then treated with 100×MIC90 Penicillin G for 22 h. The experimental (exp.) cellular ATP was extracted and the concentration was measured as stated above. Based on the calculations ([ATP] exp.)/([ATP] in./O.D. in.), differences in viability were equated with the change in [ATP]. (V) Measuring Penicillin Induced Lysis. Three GBS laboratory strains (A909, NEM316, and O90R) were cultured for 18 h at 37° C. in THB. […]

For CC1(C)S[C@@H]2[C@H](NC(=O)Cc3ccccc3)C(=O)N2[C@H]1C(=O)O [Penicillin G], the “30xMIC, regrowth O.D.600” value (GBS strain 172 (NT)) was “−− (“−−” indicates an O.D.600 of 0.001 to 0.099)”, the “100xMIC, regrowth O.D.600” value (GBS strain 172 (NT)) was “−− (“−−” indicates an O.D.600 of 0.001 to 0.099)” and the “300xMIC, regrowth O.D.600” value (GBS strain 172 (NT)) was “−− (“−−” indicates an O.D.600 of 0.001 to 0.099)”. For the same compound, the “10xMIC, regrowth O.D.600” value (GBS strain 180 (V)) was “−− (“−−” indicates an O.D.600 of 0.001 to 0.099)”, the “30xMIC, regrowth O.D.600” value (GBS strain 180 (V)) was “−− (“−−” indicates an O.D.600 of 0.001 to 0.099)” and the “100xMIC, regrowth O.D.600” value (GBS strain 180 (V)) was “−− (“−−” indicates an O.D.600 of 0.001 to 0.099)”. The “300xMIC, regrowth O.D.600” value (GBS strain 180 (V)) was “−− (“−−” indicates an O.D.600 of 0.001 to 0.099)”, the “10xMIC, regrowth O.D.600” value (GBS strain 193 (III)) was “−− (“−−” indicates an O.D.600 of 0.001 to 0.099)” and the “30xMIC, regrowth O.D.600” value (GBS strain 193 (III)) was “−− (“−−” indicates an O.D.600 of 0.001 to 0.099)”. For the same compound, the “100xMIC, regrowth O.D.600” value (GBS strain 193 (III)) was “−− (“−−” indicates an O.D.600 of 0.001 to 0.099)”, the “300xMIC, regrowth O.D.600” value (GBS strain 193 (III)) was “−− (“−−” indicates an O.D.600 of 0.001 to 0.099)” and the “10xMIC, regrowth O.D.600” value (GBS strain 204 (V)) was “−− (“−−” indicates an O.D.600 of 0.001 to 0.099)”. The “30xMIC, regrowth O.D.600” value (GBS strain 204 (V)) was “−− (“−−” indicates an O.D.600 of 0.001 to 0.099)”, the “100xMIC, regrowth O.D.600” value (GBS strain 204 (V)) was “−− (“−−” indicates an O.D.600 of 0.001 to 0.099)” and the “300xMIC, regrowth O.D.600” value (GBS strain 204 (V)) was “−− (“−−” indicates an O.D.600 of 0.001 to 0.099)”. The “10xMIC, regrowth O.D.600” value (GBS strain 211 (Ib)) was “−− (“−−” indicates an O.D.600 of 0.001 to 0.099)”, the “30xMIC, regrowth O.D.600” value (GBS strain 211 (Ib)) was “−− (“−−” indicates an O.D.600 of 0.001 to 0.099)” and the “100xMIC, regrowth O.D.600” value (GBS strain 211 (Ib)) was “−− (“−−” indicates an O.D.600 of 0.001 to 0.099)”. The “300xMIC, regrowth O.D.600” value (GBS strain 211 (Ib)) was “−− (“−−” indicates an O.D.600 of 0.001 to 0.099)”, the “10xMIC, regrowth O.D.600” value (GBS strain 219 (Ia)) was “+ (“+” indicates an O.D.600 of 0.100 to 0.250)” and the “30xMIC, regrowth O.D.600” value (GBS strain 219 (Ia)) was “+ (“+” indicates an O.D.600 of 0.100 to 0.250)”. The “100xMIC, regrowth O.D.600” value (GBS strain 219 (Ia)) was “+ (“+” indicates an O.D.600 of 0.100 to 0.250)”, the “300xMIC, regrowth O.D.600” value (GBS strain 219 (Ia)) was “+ (“+” indicates an O.D.600 of 0.100 to 0.250)” and the “10xMIC, regrowth O.D.600” value (GBS strain 244 (Ib)) was “−− (“−−” indicates an O.D.600 of 0.001 to 0.099)”. The “30xMIC, regrowth O.D.600” value (GBS strain 244 (Ib)) was “−− (“−−” indicates an O.D.600 of 0.001 to 0.099)”, the “100xMIC, regrowth O.D.600” value (GBS strain 244 (Ib)) was “−− (“−−” indicates an O.D.600 of 0.001 to 0.099)” and the “300xMIC, regrowth O.D.600” value (GBS strain 244 (Ib)) was “−− (“−−” indicates an O.D.600 of 0.001 to 0.099)”. For the same compound, the “10xMIC, regrowth O.D.600” value (GBS strain 264 (V)) was “+++ (“+++” indicates an O.D.600 of 0.751 to 1.500)”, the “30xMIC, regrowth O.D.600” value (GBS strain 264 (V)) was “++ (“++” indicates an O.D.600 of 0.251 to 0.750)” and the “100xMIC, regrowth O.D.600” value (GBS strain 264 (V)) was “−− (“−−” indicates an O.D.600 of 0.001 to 0.099)”. The “300xMIC, regrowth O.D.600” value (GBS strain 264 (V)) was “++ (“++” indicates an O.D.600 of 0.251 to 0.750)”, the “10xMIC, regrowth O.D.600” value (GBS strain 268 (Ib)) was “++ (“++” indicates an O.D.600 of 0.251 to 0.750)” and the “30xMIC, regrowth O.D.600” value (GBS strain 268 (Ib)) was “−− (“−−” indicates an O.D.600 of 0.001 to 0.099)”. The “100xMIC, regrowth O.D.600” value (GBS strain 268 (Ib)) was “+++ (“+++” indicates an O.D.600 of 0.751 to 1.500)”, the “300xMIC, regrowth O.D.600” value (GBS strain 268 (Ib)) was “+++ (“+++” indicates an O.D.600 of 0.751 to 1.500)” and the “10xMIC, regrowth O.D.600” value (GBS strain 272 (V)) was “−− (“−−” indicates an O.D.600 of 0.001 to 0.099)”. For the same compound, the “30xMIC, regrowth O.D.600” value (GBS strain 272 (V)) was “−− (“−−” indicates an O.D.600 of 0.001 to 0.099)”, the “100xMIC, regrowth O.D.600” value (GBS strain 272 (V)) was “−− (“−−” indicates an O.D.600 of 0.001 to 0.099)” and the “300xMIC, regrowth O.D.600” value (GBS strain 272 (V)) was “−− (“−−” indicates an O.D.600 of 0.001 to 0.099)”. For the same compound, the “10xMIC, regrowth O.D.600” value (GBS strain 273 (V)) was “−− (“−−” indicates an O.D.600 of 0.001 to 0.099)”, the “30xMIC, regrowth O.D.600” value (GBS strain 273 (V)) was “−− (“−−” indicates an O.D.600 of 0.001 to 0.099)” and the “100xMIC, regrowth O.D.600” value (GBS strain 273 (V)) was “−− (“−−” indicates an O.D.600 of 0.001 to 0.099)”. For the same compound, the “300xMIC, regrowth O.D.600” value (GBS strain 273 (V)) was “++ (“++” indicates an O.D.600 of 0.251 to 0.750)”, the “10xMIC, regrowth O.D.600” value (GBS strain 279 (III)) was “++ (“++” indicates an O.D.600 of 0.251 to 0.750)” and the “30xMIC, regrowth O.D.600” value (GBS strain 279 (III)) was “+++ (“+++” indicates an O.D.600 of 0.751 to 1.500)”. For the same compound, the “100xMIC, regrowth O.D.600” value (GBS strain 279 (III)) was “++ (“++” indicates an O.D.600 of 0.251 to 0.750)”, the “300xMIC, regrowth O.D.600” value (GBS strain 279 (III)) was “++ (“++” indicates an O.D.600 of 0.251 to 0.750)” and the “10xMIC, regrowth O.D.600” value (GBS strain 296 (Ia)) was “−− (“−−” indicates an O.D.600 of 0.001 to 0.099)”. The “30xMIC, regrowth O.D.600” value (GBS strain 296 (Ia)) was “−− (“−−” indicates an O.D.600 of 0.001 to 0.099)”, the “100xMIC, regrowth O.D.600” value (GBS strain 296 (Ia)) was “++ (“++” indicates an O.D.600 of 0.251 to 0.750)” and the “300xMIC, regrowth O.D.600” value (GBS strain 296 (Ia)) was “−− (“−−” indicates an O.D.600 of 0.001 to 0.099)”. The “10xMIC, regrowth O.D.600” value (GBS strain 306 (II)) was “−− (“−−” indicates an O.D.600 of 0.001 to 0.099)”, the “30xMIC, regrowth O.D.600” value (GBS strain 306 (II)) was “−− (“−−” indicates an O.D.600 of 0.001 to 0.099)” and the “100xMIC, regrowth O.D.600” value (GBS strain 306 (II)) was “−− (“−−” indicates an O.D.600 of 0.001 to 0.099)”. For the same compound, the “300xMIC, regrowth O.D.600” value (GBS strain 306 (II)) was “−− (“−−” indicates an O.D.600 of 0.001 to 0.099)”, the “10xMIC, regrowth O.D.600” value (GBS strain 307 (II)) was “−− (“−−” indicates an O.D.600 of 0.001 to 0.099)” and the “30xMIC, regrowth O.D.600” value (GBS strain 307 (II)) was “−− (“−−” indicates an O.D.600 of 0.001 to 0.099)”. For the same compound, the “100xMIC, regrowth O.D.600” value (GBS strain 307 (II)) was “−− (“−−” indicates an O.D.600 of 0.001 to 0.099)” and the “300xMIC, regrowth O.D.600” value (GBS strain 307 (II)) was “−− (“−−” indicates an O.D.600 of 0.001 to 0.099)”.
